This is an account of results in patent publication US20260092071A1, “COMPOUNDS AND COMPOSITIONS AS SMARCA2/4 DEGRADERS AND USES THEREOF” (REGENTS OF THE UNIVERSITY OF MICHIGAN, priority 2022, published 2026).

One test has as its target SMARCA2 (Homo sapiens, UniProt P51531). In words: HiBiT assay for protein degradation, Hela SMARCA2-HiBiT cells (A series).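 As to SMARC A2 Hela HiBit Dmax (%): 24 h compound treatment.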 Type of test: cell-based. Also on record: Hela cells were genetically modified via CRISPR/Cas9 to fuse HiBiT to the carboxy terminus of SMARCA2; host or cells: HeLa (CRISPR/Cas9 HiBiT knock-in). The following applies: for DC50: read-out: SMARC A2 Hela HiBit DC50; for Dmax: read-out: SMARC A2 Hela HiBit Dmax (%). In outline:
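SMARCA2 degradation was measured in HeLa cells whose endogenous SMARCA2 carries a carboxy-terminal HiBiT tag introduced by CRISPR/Cas9 (Promega CS302365). Cells were maintained in DMEM with FBS and penicillin-streptomycin. SMARCA2 levels were read at the end of the experiment by Nano-Glo® HiBiT lytic luminescence (Promega N3050) and analyzed in GraphPad Prism.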
For orientation: HiBiT is a short tag that completes a luciferase, so light tracks the accessible tagged protein.

The target of a further test is SMARCA4 (Homo sapiens, UniProt P51532). In words: HiBiT assay for protein degradation, Hela SMARCA4-HiBiT cells (A series). Type of test: cell-based. Set-up: fuse HiBiT to the carboxy terminus of SMARCA2 (Promega CS302365) or SMARCA4 (Promega CS3023225); host or cells: HeLa (CRISPR/Cas9 HiBiT knock-in). Particulars: for DC50: read-out: SMARC A4 Hela HiBit DC50. In outline: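 SMARCA4 degradation was measured in HeLa cells in which HiBiT had been knocked into the SMARCA4 carboxy terminus via CRISPR/Cas9 (Promega CS3023225). Cells were maintained in DMEM with FBS and penicillin-streptomycin. At the end of treatment, SMARCA4 levels were read by lytic HiBiT luminescence (Nano-Glo®, Promega N3050), and data were analyzed with GraphPad Prism.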
Chain of SMARCA4 (P51532 whole entry): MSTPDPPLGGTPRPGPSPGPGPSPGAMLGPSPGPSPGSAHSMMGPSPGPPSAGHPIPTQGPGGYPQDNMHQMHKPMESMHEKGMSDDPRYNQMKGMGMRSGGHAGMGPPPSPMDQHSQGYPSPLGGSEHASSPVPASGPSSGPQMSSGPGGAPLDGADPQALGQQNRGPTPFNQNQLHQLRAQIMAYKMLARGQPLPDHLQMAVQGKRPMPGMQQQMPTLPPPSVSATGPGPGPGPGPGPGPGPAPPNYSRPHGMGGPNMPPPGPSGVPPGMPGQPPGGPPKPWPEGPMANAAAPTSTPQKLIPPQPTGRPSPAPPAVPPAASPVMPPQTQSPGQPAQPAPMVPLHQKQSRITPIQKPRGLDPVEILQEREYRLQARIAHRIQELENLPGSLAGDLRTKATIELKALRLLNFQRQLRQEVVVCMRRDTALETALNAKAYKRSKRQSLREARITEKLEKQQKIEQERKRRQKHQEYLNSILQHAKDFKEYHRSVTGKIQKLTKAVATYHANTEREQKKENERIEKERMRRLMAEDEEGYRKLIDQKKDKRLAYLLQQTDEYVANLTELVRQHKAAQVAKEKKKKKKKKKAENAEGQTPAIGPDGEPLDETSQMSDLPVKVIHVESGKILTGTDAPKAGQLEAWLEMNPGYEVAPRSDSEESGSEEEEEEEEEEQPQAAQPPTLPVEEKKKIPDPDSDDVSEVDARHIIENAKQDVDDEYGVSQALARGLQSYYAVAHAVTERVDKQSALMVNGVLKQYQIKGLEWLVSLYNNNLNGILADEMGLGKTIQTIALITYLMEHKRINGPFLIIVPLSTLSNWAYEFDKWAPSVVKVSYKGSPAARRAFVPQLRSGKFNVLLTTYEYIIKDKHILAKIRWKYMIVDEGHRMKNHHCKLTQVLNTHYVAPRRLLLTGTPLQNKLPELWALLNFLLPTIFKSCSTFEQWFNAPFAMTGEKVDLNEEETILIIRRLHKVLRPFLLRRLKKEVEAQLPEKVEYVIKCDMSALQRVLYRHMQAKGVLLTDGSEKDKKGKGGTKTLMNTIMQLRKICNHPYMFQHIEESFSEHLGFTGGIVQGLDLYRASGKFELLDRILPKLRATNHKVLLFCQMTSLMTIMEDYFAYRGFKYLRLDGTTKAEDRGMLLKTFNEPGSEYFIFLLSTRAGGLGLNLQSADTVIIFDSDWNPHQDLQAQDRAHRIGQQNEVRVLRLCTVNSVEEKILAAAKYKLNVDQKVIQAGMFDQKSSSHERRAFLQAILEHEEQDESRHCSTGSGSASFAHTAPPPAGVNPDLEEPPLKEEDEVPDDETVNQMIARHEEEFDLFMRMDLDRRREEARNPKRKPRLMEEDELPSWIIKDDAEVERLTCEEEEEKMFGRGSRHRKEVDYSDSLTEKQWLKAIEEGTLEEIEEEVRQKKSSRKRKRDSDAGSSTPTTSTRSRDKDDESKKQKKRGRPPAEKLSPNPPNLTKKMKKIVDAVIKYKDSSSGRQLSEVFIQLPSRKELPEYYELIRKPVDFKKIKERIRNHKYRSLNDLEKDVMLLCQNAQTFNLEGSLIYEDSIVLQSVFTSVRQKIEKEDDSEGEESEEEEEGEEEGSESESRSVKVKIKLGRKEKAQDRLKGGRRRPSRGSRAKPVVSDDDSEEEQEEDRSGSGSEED

Where [1] appears, read: Hela SMARCA2-HiBiT cells, 24 hours treatment.
Setting [2] is: Hela SMARCA4-HiBiT cells, 24 hours treatment.
[3] abbreviates: Hela SMARCA4-HiBiT cells, 24 hours treatment, read-out: SMARC A4 Hela HiBit Dmax.
The mark [4] stands for this setting: Hela SMARCA4-HiBiT cells, 24 hours treatment, read-out: SMARC A4 Hela HiBit Dmax(%).

By DC50 is commonly meant the concentration at which degradation of the target reaches its halfway point. What is called Dmax is the greatest extent of degradation seen.

Where two headings read alike, the source gives them in different places.

Chain of SMARCA2 (P51531 whole entry): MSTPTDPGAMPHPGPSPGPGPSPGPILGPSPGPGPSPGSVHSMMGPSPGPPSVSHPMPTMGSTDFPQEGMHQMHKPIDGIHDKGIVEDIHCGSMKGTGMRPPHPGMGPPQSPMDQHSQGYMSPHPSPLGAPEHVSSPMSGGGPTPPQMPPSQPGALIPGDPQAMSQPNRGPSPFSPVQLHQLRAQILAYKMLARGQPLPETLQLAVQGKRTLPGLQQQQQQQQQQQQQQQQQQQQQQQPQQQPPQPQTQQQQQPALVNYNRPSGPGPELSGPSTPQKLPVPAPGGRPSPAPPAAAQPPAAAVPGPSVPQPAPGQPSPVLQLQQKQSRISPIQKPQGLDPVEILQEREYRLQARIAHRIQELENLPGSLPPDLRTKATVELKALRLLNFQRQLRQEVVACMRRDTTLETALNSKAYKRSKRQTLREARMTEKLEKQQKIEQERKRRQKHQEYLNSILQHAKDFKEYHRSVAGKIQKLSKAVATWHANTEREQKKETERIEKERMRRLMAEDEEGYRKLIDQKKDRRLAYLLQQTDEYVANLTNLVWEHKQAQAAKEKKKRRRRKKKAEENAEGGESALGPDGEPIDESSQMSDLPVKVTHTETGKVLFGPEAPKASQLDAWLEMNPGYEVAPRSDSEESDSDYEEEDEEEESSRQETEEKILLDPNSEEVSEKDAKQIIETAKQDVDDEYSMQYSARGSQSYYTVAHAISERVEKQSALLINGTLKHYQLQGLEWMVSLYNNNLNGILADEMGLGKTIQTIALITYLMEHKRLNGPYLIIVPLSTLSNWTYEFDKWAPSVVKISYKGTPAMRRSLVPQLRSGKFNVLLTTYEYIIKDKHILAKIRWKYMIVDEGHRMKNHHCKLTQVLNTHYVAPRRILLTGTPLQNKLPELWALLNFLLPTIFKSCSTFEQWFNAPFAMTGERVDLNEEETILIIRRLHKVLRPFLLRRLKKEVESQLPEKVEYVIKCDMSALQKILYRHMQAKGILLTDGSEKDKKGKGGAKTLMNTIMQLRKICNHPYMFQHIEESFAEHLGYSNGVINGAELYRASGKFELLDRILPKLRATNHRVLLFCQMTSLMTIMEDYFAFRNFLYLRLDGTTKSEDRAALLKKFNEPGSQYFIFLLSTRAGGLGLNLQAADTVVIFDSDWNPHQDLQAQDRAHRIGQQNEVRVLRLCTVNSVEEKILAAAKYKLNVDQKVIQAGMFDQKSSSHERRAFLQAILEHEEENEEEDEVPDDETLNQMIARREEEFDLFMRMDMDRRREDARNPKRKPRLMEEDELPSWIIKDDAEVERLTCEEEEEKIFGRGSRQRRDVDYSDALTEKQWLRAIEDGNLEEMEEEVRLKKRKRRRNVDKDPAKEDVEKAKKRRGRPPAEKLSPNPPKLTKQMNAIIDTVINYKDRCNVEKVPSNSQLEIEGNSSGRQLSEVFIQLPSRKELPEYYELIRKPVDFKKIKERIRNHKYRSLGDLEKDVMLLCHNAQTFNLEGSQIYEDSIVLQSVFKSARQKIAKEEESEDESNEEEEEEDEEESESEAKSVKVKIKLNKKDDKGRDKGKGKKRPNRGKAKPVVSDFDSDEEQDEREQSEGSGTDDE

As for `Cc1ncsc1-c1ccc([C@H](CN2CC3(COC3)C2)NC(=O)[C@@H]2C[C@@H](O)CN2C(=O)[C@@H](n2cc([C@H]3CC[C@H](CN4CCC(c5ccc6c(c5)-n5c(nc(=O)c7c(Cl)cccc75)C65CCCCC5)CC4)CC3)nn2)C(C)(C)C)cc1` [Compound A96, (2S,4R)-1-((S)-2-(4-((1r,4S)-4-((4-(4′-chloro-5′-oxo-5′H-spiro[cyclohexane-1,7′-indolo[1,2-a]quinazolin]-10′-yl)piperidin-1-yl)methyl)cyclohexyl)-1H-1,2,3-triazol-1-yl)-3,3-dimethylbutanoyl)-4-hydroxy-N—((R)-1-(4-(4-methylthiazol-5-yl)phenyl)-2-(2-oxa-6-azaspiro[3.3]heptan-6-yl)ethyl)pyrrolidine-2-carboxamide], the figures for the half-maximal degradation concentration (DC50) on SMARCA2 (setting [1]) and at SMARCA4 (setting [2]) were less than 0.01 µM and more than 1 µM, respectively. For the same compound, the greatest degradation seen (Dmax) at SMARCA2 (setting [1]) is more than 90%; at SMARCA4 (setting [3]) it was 50 to 69%.
The corresponding values for `COCCOC[C@H](NC(=O)[C@@H]1C[C@@H](O)CN1C(=O)[C@@H](n1cc([C@H]2CC[C@H](CN3CCC(c4ccc5c(c4)-n4c(nc(=O)c6c(Cl)cccc64)C5(C)C)CC3)CC2)nn1)C(C)(C)C)c1ccc(-c2scnc2C)cc1` [Compound A91, (2S,4R)-1-((S)-2-(4-((1r,4S)-4-((4-(4-chloro-7,7-dimethyl-5-oxo-5,7-dihydroindolo[1,2-a]quinazolin-10-yl)piperidin-1-yl)methyl)cyclohexyl)-1H-1,2,3-triazol-1-yl)-3,3-dimethylbutanoyl)-4-hydroxy-N-(®-2-(2-methoxyethoxy)-1-(4-(4-methylthiazol-5-yl)phenyl)ethyl)pyrrolidine-2-carboxamide] are less than 0.01 µM, more than 1 µM, more than 90% and less than 50%.
With `Cc1ncsc1-c1ccc([C@H](C)NC(=O)[C@@H]2C[C@@H](O)CN2C(=O)[C@@H](n2cc(CN3CCC(c4ccc5c(c4)-n4c(nc(=O)c6c(Br)cccc64)C54CCCCC4)CC3)nn2)C(C)(C)C)cc1` [Compound A43, (2S,4R)-1-((S)-2-(4-((4-(4′-bromo-5′-oxo-5′H-spiro[cyclohexane-1,7′-indolo[1,2-a]quinazolin]-10′-yl)piperidin-1-yl)methyl)-1H-1,2,3-triazol-1-yl)-3,3-dimethylbutanoyl)-4-hydroxy-N—((S)-1-(4-(4-methylthiazol-5-yl)phenyl)ethyl)pyrrolidine-2-carboxamide], the DC50 at SMARCA2 (setting [1]) and on SMARCA4 (setting [2]) was less than 0.1 µM in each case. For the same compound, the maximal degradation (Dmax) at SMARCA2 (setting [1]) was more than 90%; on SMARCA4 (setting [4]) it was 70 to 90%.
On to `Cc1ncsc1-c1ccc([C@H](CN(C)C)NC(=O)[C@@H]2C[C@@H](O)CN2C(=O)[C@@H](NC(=O)[C@H]2CC[C@H](CN3CCC(c4ccc5c(c4)C4(CCCCC4)c4nc(=O)c6c(Br)cccc6n4-5)CC3)CC2)C(C)(C)C)cc1` [Compound A15], for which, at SMARCA2 (setting [1]), the 50% degradation concentration (DC50) was less than 0.1 µM and the Dmax is more than 90%. Further, the “SMARC A4 Hela HiBit DC50(nM)” value on SMARCA4 (setting [2]) is “No Fit”. In addition, the Dmax on SMARCA4 (setting [4]) was less than 50%.
Take `Cc1ncsc1-c1ccc([C@H](Cn2cc([C@H]3CC[C@H](CN4CCC(c5ccc6c(n5)-n5c(nc(=O)c7c(Br)cccc75)C65CCCCC5)CC4)CC3)nn2)NC(=O)[C@@H]2C[C@@H](O)CN2C(=O)[C@@H](NC(=O)C2(F)CC2)C(C)(C)C)cc1` [Compound A34, (2S,4R)—N—((R)-2-(4-((1r,4R)-4-((4-(4′-bromo-5′-oxo-5′H-spiro[cyclohexane-1,7′-pyrido[3′,2′: 4,5]pyrrolo[1,2-a]quinazolin]-10′-yl)piperidin-1-yl)methyl)cyclohexyl)-1H-1,2,3-triazol-1-yl)-1-(4-(4-methylthiazol-5-yl)phenyl)ethyl)-1-((S)-2-(1-fluorocyclopropane-1-carboxamido)-3,3-dimethylbutanoyl)-4-hydroxypyrrolidine-2-carboxamide]: the DC50 at SMARCA2 (setting [1]) is 0.501 to 1 µM; on SMARCA4 (setting [2]), more than 1 µM. Also, the Dmax was 50 to 69% at SMARCA2 (setting [1]) and less than 50% on SMARCA4 (setting [4]).
On to `Cc1ncsc1-c1ccc([C@H](CN2CCOCC2)NC(=O)[C@@H]2C[C@@H](O)CN2C(=O)[C@H](C2CCOCC2)n2cc([C@H]3CC[C@H](CN4CCC(c5ccc6c(c5)-n5c(nc(=O)c7c(Cl)cccc75)C65CCCCC5)CC4)CC3)nn2)cc1` [Compound A100, (2S,4R)-1-((S)-2-(4-((1r,4S)-4-((4-(4′-chloro-5′-oxo-5′H-spiro[cyclohexane-1,7′-indolo[1,2-a]quinazolin]-10′-yl)piperidin-1-yl)methyl)cyclohexyl)-1H-1,2,3-triazol-1-yl)-2-(tetrahydro-2H-pyran-4-yl)acetyl)-4-hydroxy-N—((R)-1-(4-(4-methylthiazol-5-yl)phenyl)-2-morpholinoethyl)pyrrolidine-2-carboxamide], for which the DC50 was less than 0.01 µM at SMARCA2 (setting [1]) and more than 1 µM at SMARCA4 (setting [2]). For the same compound, the Dmax at SMARCA2 (setting [1]) was more than 90%; at SMARCA4 (setting [3]), 50 to 69%.
As for `Cc1ncsc1-c1ccc([C@H](Cn2cc(CN3CCC(c4ccc5c(c4)-n4c(nc(=O)c6c(Br)cccc64)C54CCCCC4)CC3)nn2)NC(=O)[C@@H]2C[C@@H](O)CN2C(=O)[C@@H](n2cc(C3CC3)nn2)C(C)(C)C)cc1` [Compound A114, (2S,4R)—N—((R)-2-(4-((4-(4′-bromo-5′-oxo-5′H-spiro[cyclohexane-1,7′-indolo[1,2-a]quinazolin]-10′-yl)piperidin-1-yl)methyl)-1H-1,2,3-triazol-1-yl)-1-(4-(4-methylthiazol-5-yl)phenyl)ethyl)-1-((S)-2-(4-cyclopropyl-1H-1,2,3-triazol-1-yl)-3,3-dimethylbutanoyl)-4-hydroxypyrrolidine-2-carboxamide], the DC50 lay in the range of 0.01 to 0.1 µM at SMARCA2 (setting [1]) and 0.1 to 1 µM at SMARCA4 (setting [2]). The maximal degradation (Dmax) on SMARCA2 (setting [1]) and on SMARCA4 (setting [3]) was 70 to 90% throughout.
Regarding `Cc1ncsc1-c1ccc([C@H](C)NC(=O)[C@@H]2C[C@@H](O)CN2C(=O)[C@H](C2CCN(C(=O)[C@@H]3COCCO3)CC2)n2cc([C@H]3CC[C@H](CN4CCC(c5ccc6c(c5)-n5c(nc(=O)c7c(Cl)cccc75)C65CCCCC5)CC4)CC3)nn2)cc1` [Compound A113, (2S,4R)-1-((S)-2-(1-((S)-1,4-dioxane-2-carbonyl)piperidin-4-yl)-2-(4-((1r,4S)-4-((4-(4′-chloro-5′-oxo-5′H-spiro[cyclohexane-1,7′-indolo[1,2-a]quinazolin]-10′-yl)piperidin-1-yl)methyl)cyclohexyl)-1H-1,2,3-triazol-1-yl)acetyl)-4-hydroxy-N—((S)-1-(4-(4-methylthiazol-5-yl)phenyl)ethyl)pyrrolidine-2-carboxamide], the half-maximal degradation concentration (DC50) at SMARCA2 (setting [1]) is less than 0.01 µM. The values for the Dmax on SMARCA2 (setting [1]) and on SMARCA4 (setting [3]) were more than 90% and 70 to 90%, respectively. For the same compound, the “SMARC A4 Hela HiBit DC50(nM)” value at SMARCA4 (setting [2]) was “No fit”.
Consider `Cc1ncsc1-c1ccc([C@H](CC(=O)N2CCC(N3CCC(c4ccc5c(c4)-n4c(nc(=O)c6c(Cl)cccc64)C54CCCCC4)CC3)CC2)NC(=O)[C@@H]2C[C@@H](O)CN2C(=O)[C@@H](n2cc(C3CC3)nn2)C(C)(C)C)cc1` [Compound A143, (2S,4R)—N—((S)-3-(4-(4′-chloro-5′-oxo-5′H-spiro[cyclohexane-1,7′-indolo[1,2-a]quinazolin]-10′-yl)-[1,4′-bipiperidin]-1′-yl)-1-(4-(4-methylthiazol-5-yl)phenyl)-3-oxopropyl)-1-((S)-2-(4-cyclopropyl-1H-1,2,3-triazol-1-yl)-3,3-dimethylbutanoyl)-4-hydroxypyrrolidine-2-carboxamide], for which the half-maximal degradation concentration (DC50) on SMARCA2 (setting [1]) lay within 0.01 to 0.1 µM; on SMARCA4 (setting [2]), 0.1 to 1 µM. For the same compound, the Dmax was 70 to 90% on SMARCA2 (setting [1]) and 50 to 69% on SMARCA4 (setting [3]).
Regarding `Cc1ncsc1-c1ccc([C@H](C)NC(=O)[C@@H]2C[C@@H](O)CN2C(=O)[C@@H](n2cc(CCCCCCN3CCC(c4ccc5c(c4)-n4c(nc(=O)c6c(Br)cccc64)C54CCCCC4)CC3)nn2)C(C)(C)C)cc1` [Compound A47, (2S,4R)-1-((S)-2-(4-(6-(4-(4′-bromo-5′-oxo-5′H-spiro[cyclohexane-1,7′-indolo[1,2-a]quinazolin]-10′-yl)piperidin-1-yl)hexyl)-1H-1,2,3-triazol-1-yl)-3,3-dimethylbutanoyl)-4-hydroxy-N—((S)-1-(4-(4-methylthiazol-5-yl)phenyl)ethyl)pyrrolidine-2-carboxamide], on SMARCA2 (setting [1]), the “SMARC A2 Hela HiBit Dmax (%)” value is given as “A (A (>90% degradation))”. Further, the 50% degradation concentration (DC50) on SMARCA2 and on SMARCA4 was less than 0.1 µM throughout. Moreover, the “SMARC A4 Hela HiBit Dmax(%)” value at SMARCA4 (setting [2]) is listed as “A (A (>90% degradation))”.
